Experimental data as given in US12268683B2, “Compounds and methods for synergistic activation of M channels” (THE REGENTS OF THE UNIVERSITY OF CALIFORNIA, priority 2018, dated 2025).

Test system: water-injected control oocytes
Assay: TEVC of water-injected control oocytes (endogenous current, EM)
Format: cell-based, Xenopus laevis
Protocol: TEVC recording was performed at room temperature with an OC-725C amplifier (Warner Instruments, Hamden, Conn.) and pClamp10.2 software (Molecular Devices, Sunnyvale, Calif.) 3-5 days after cRNA injection as described in the section above. Oocytes were placed in a small-volume oocyte bath (Warner) and viewed with a dissection microscope. Chemicals were sourced from Sigma. Bath solution was (in mM): 96 NaCl, 4 KCl, 1 MgCl2, 1 CaCl2. 10 HEPES (pH 7.6). […] MTX (DMSO), sorbic acid (ethanol), and glutaconic acid (molecular grade H2O) were stored at −20° C. as 1 M stocks. Oleamide was stored as a 1 mM stock in ethanol at 4° C. […] Currents were recorded in response to pulses between −80 and +40 mV at 20 mV intervals, or a single pulse to +40 mV, from a holding potential of −80 mV, to yield current-voltage relationships, current magnitude, and for quantifying activation rate. […]
TEVC recording was performed at room temperature using a OC-725C amplifier (Warner Instruments, Hamden, Conn.) and pClamp8 software (Molecular Devices, Sunnyvale, Calif.) 2-5 days after cRNA injection as described in the section above. […] Currents were recorded in response to pulses between −80 mV and +40 mV at 20 mV intervals, or a single pulse to +40 mV, from a holding potential of −80 mV, to yield current-voltage relationships, current magnitude, and for quantifying activation rate. […]

Compound | effect on endogenous current or EM of water-injected control oocytes
NCC1(CC(=O)O)CCCCC1 [gabapentin, reference compound] | no effect
CC(=O)c1c(O)c(C)c(O)c(Cc2c(O)c3c(c(C(=O)/C=C/c4ccccc4)c2O)OC(C)(C)C=C3)c1O [MTX, mallotoxin] | no effect
